Compound | melting point [°C]
Oc1ccc(Nc2nc(NCc3ccco3)nc(-n3ccnc3)n2)cc1 | 244 to 246
COc1ccc(COC(=O)ON=C(C#N)c2ccccc2)cc1 | 112 to 113
CCCn1ncc2c(=O)[nH]c(-c3cc(C(=O)O)ccc3OCC)nc21 | 277 to 279
CC(C)CN(CC(O)C(Cc1ccccc1)NC(=O)C(CC(N)=O)NC(=O)NCc1ccccc1)C(=O)NC(C)(C)C (stereo unspecified) | 164 to 166
COc1ccc(C(C)(C)C)cc1NC(=S)Nc1cccc2ccccc12 | 158 to 160
O=C(O)C(O)c1ccc2nc(-c3ccc(Cl)cc3)oc2c1 (stereo unspecified) | 222 to 224
CCn1nc(C)c2c1C(=O)NCC(c1ccc(NS(=O)(=O)c3ccccc3S(=O)(=O)c3ccccc3)cc1)=N2 | > 230
COc1cc(C(O)C#Cc2cnc(N)nc2N)cc(OC)c1OC (stereo unspecified) | 203 to 205
Cc1nn(-c2ccccn2)c2nc3ccccc3c(N(C)C)c12 | 98 to 101
O=C(Nc1cccnc1)NC(CS)Cc1ccccc1 (single isomer, unassigned; (+)) | 149
CCCN1NC(c2ccc(C)cc2)C2=C1C(=Cc1ccc(C)cc1)CSC2 (stereo unspecified) | 140 to 143
c1ncn(Cc2ccc3c(c2)Cc2c(-c4ccsc4)n[nH]c2-3)n1 | 252 to 257
COC(=O)COc1ccc2ccc(C(C)=O)c(O)c2c1 | 133 to 135
Cn1cncc1C(N)(c1ccc(CN)cc1)c1ccc2c(c1)c(-c1cccc(Cl)c1)cc(=O)n2C (stereo unspecified) | 150
CC(=O)NCCC(=O)NCCNC(=O)OCc1ccccc1 | 180 to 182
CC(=O)CCOc1c(-c2ccc(S(C)(=O)=O)cc2)cnn(-c2ccc(F)c(F)c2)c1=O | 134 to 135
O=C(O)c1cc2cc(F)c(F)cc2[nH]1 | 279 to 280
Cc1cc2c(-c3ccccc3Cl)c(NC(=O)Nc3cccc(C(F)(F)F)c3)c(=O)n(C)c2cc1C | 175 to 176
COc1ccc(-c2[nH]cnc2-c2cc(OC)c(O)c(OC)c2)cc1N | 148 to 150
CCOC(=O)C(C)(C)OC1(CCCNC(=O)c2cc(Cl)ccc2OC)C=CC(c2ccccc2)=CC1 (stereo unspecified) | < 20
c1csc(-c2nc3cc(COc4ccc(CCCCn5ccnc5)cc4)ccc3o2)c1 | 130 to 131
CC(C)n1nc(-c2c(-c3ccccc3)nn3ccc(OCC(=O)Nc4ccccc4)cc23)ccc1=O | 208 to 209
CSCc1cnc2c(NC(=O)c3c(Cl)cccc3Cl)cccc2c1Cl | 173 to 175
Cc1nc(-c2c(Cl)cc(C(F)(F)F)cc2Cl)[nH]c1[N+](=O)[O-] | 316 to 318

Compound | melting point [°C]
Cc1cccc(C)c1N1C(=S)N(C)C(O)C1O (stereo unspecified) | 140 to 143
O=C(O)CCSSc1ccc([N+](=O)[O-])cc1 | 98 to 100
CSc1c(CO)sc2c1CCN(C)CC2c1ccccc1 (stereo unspecified) | 146
CCOC(=O)C(=O)Nc1cc(NC(C)=O)ccc1O | > 300
Cc1ccc(NC(=O)c2ccc(Br)cc2)cc1N1CCN(C)CC1 | 208 to 209
CC(CCc1ccccc1)N(Cc1ccccc1)CC(O)c1ccc(N)c(S(N)(=O)=O)c1 (stereo unspecified) | 133 to 136
CC(=O)C1(CCC(=O)OC(C)(C)C)CCCCC1=O (stereo unspecified) | 47 to 53
C=CCc1cc(C(C)=O)c(O)cc1OCCCCCC(N)=O | 122 to 124
CCOC(=O)C(=O)Nc1ccc(OC)cc1[N+](=O)[O-] | 151
CC(C)(C)c1cc(-c2noc(N)n2)cc(C(C)(C)C)c1O | 202 to 204
COc1cc(C(=O)O)ccc1OCCCCl | 154 to 156
O=C(Nc1ncc(Br)cn1)c1ccccc1SSc1ccccc1C(=O)Nc1ncc(Br)cn1 | 249 to 253
C=CCn1c(C)c(C)c2cnnc(OCc3ccc(F)cc3F)c21 | 125 to 126
CN(Cc1cc(C(F)(F)F)cc(C(F)(F)F)c1)C(=O)c1c(-c2ccc(F)cc2)c2c(c(=O)n1C)CCCN2C | 230 to 232
CCOC(=O)CNC(=O)C(C)(C)c1ccc(C2=NC(C)(C)Cc3cc(OC)c4c(c32)CC(C)(C)O4)cc1 | 133 to 138
COC(=O)CCc1cc2cc(F)ccc2n1S(=O)(=O)c1ccccc1 | 79 to 80
O=C(COc1ccc(-c2ccccc2Cl)cn1)Nc1cscc1C(=O)O | 218 to 223
COC(=O)c1c(Cc2ccc(C(=O)NC(C)(C)CC(=O)N(C)C)cc2)c(=O)c2ccc(Cl)cc2n1-c1ccccc1 | 84.1 to 95.5
N#Cc1ccc(-c2cc(C(=O)O)c(=O)n(Cc3ccccc3)n2)cc1 | 254 to 256
O=C(NN=CC(Cl)(Cl)Cl)c1cccc(Oc2cccc(C(F)(F)F)c2)n1 | 81 to 82
c1ccc2c(c1)CCc1c-2noc1N1CCN(Cc2c[nH]c3ncccc23)CC1 | 248 to 250
COC(=O)c1cccc(-c2nc(COc3ccc(CO)cc3OC)c(C)o2)c1 | 141 to 142
O=C(O)Cc1nn(-c2ccccn2)c2[nH]c3ccccc3c(=O)c12 | 229 to 231
CCOC(=O)C(=O)N(CCOS(C)(=O)=O)N=Cc1ccccc1 | 93 to 95

Compound | melting point [°C]
Cc1c(C)c2c(c(C)c1O)C(=O)C(C)(C)O2 | 142 to 144
CCC(=O)Nc1nc(-c2cc(C)cc(C)c2)c(-c2ccncc2)s1 | 291 to 293
COc1ccc2c(c1)C(C)(N)C(=O)N2c1ccc(F)cc1 (stereo unspecified) | 163 to 164
CCN1C=C2C=C(S)N=CN2N1 | 251 to 254
O=C(O)c1cc(OCc2ccccc2)nn1-c1ccccc1 | 163 to 164
COC(=O)Cn1c(CCc2ccccc2)ccc(NC(=O)CCc2ccccc2)c1=O | 105 to 108
Cc1c(C)c(N2CCN(c3ccn(C)n3)CC2)c(C)c2c1OC(C)(C)C2 | 147 to 149
CC(=O)c1cccc2ccc(CS(=O)(=O)N3CCOCC3)cc12 | 162
CCCN(CCC)Cc1nc(-c2ncn3c2CN(C)C(=O)c2c(Br)cccc2-3)no1 | 135 to 145
Nc1cc(C(=O)O)c(N)c2c1C(=O)c1ccccc1C2=O | 352
Fc1cccc(CCc2nnc(-c3ccnc4[nH]ccc34)o2)c1 | 147 to 148
O=C(O)c1cc(Cl)cc2cc(-c3ccccc3)oc12 | 255 to 258
O=C(O)COc1cccc(CCc2nc(-c3ccccc3)c(-c3ccccc3)s2)c1 | 118 to 120
O=[N+]([O-])c1cc2n(n1)CCOC2 | 110 to 112
CN1CCC(c2c[nH]c3ccc(NS(=O)(=O)c4cccc5ccccc45)cc23)CC1 | 254 to 256
CCSC1CN2CCC1CC2 (stereo unspecified) | 101 to 102
O[C@@H]1CNCC[C@H]1Oc1ccc(F)cc1 (relative stereo) | 121 to 123
CCN(CC)CCNC(=O)c1cc(Cl)c(N)cc1OCCCN | 119 to 121
O=c1c2ccccc2ncn1CCN1CCC(Nc2nc3ccccc3n2Cc2ccc(F)cc2)CC1 | 191
CC(=O)NC1CCS(=O)(=O)c2sc(S(N)(=O)=O)cc21 (stereo unspecified) | 263 to 265
O=C(Nc1ccc(CN2C(=O)[C@H]3CCC[C@H]3N(C(=O)CN3C(=O)c4ccccc4C3=O)c3ccccc32)cc1)c1ccccc1 (relative stereo) | 252 to 255
Cc1ccc(S(=O)(=O)N2CCCC2c2nnnn2[C@@](C)(Cc2ccc(N(C(=O)OC(C)(C)C)C(=O)C3CCNCC3)cc2)C(=O)O)cc1 (stereo partly specified) | 180 to 189
CCOC(=O)c1cc(NC(C)=O)ccc1O | 135 to 136
CSc1ccc(-c2nn(Cc3ccccc3)c(=S)cc2-c2ccc(F)cc2)cc1 | 108

Compound | melting point [°C]
CCOC(=O)Cc1c(C)n(Cc2cccc(OC)c2)c2ccc(OCc3csc(-c4ccccc4)n3)cc12 | 85 to 86
C[C@H](CC#CC(C)(C)O)[C@H]1CCC[C@H]2[C@@H](O)CCC[C@]12C | 134 to 135
O=S1N=C(NCCCN(Cc2ccc(F)cc2)c2ccccn2)C(NCc2ccncc2)=N1 (stereo unspecified) | 160 to 163
O=c1[nH]c2cccc(OCCNCc3ccc(Cl)cc3)c2[nH]c1=O | > 250
CC(C)(C)OC(=O)Cn1c2ccccc2c2c(N3CCCC3)nc(N3CCCC3)nc21 | 131 to 133
CCOC(=O)c1cnn2c1nc(NCCCN(C)C)c1cnc3c(cnn3CC)c12 | 212 to 215
Nc1nc2c(s1)CC(N1CCN(c3ccc(Br)cn3)CC1)CC2 (stereo unspecified) | 246 to 248
CC(C)S(=O)(=O)c1snc(OC[Si](C)(C)C)c1C#N | 98 to 99
COc1ccc2[nH]c3c(C(=O)O)cccc3c2c1 | 262
O=S(=O)(C=Cc1ccccc1)N1CCc2c([nH]c3ccccc23)C1c1ccc2c(c1)OCO2 (stereo unspecified) | 191 to 192
CC(C)(C)OC(=O)N[C@@H](Cc1ccc(O)cc1)C(=O)NCC(=O)NCC(=O)Oc1c(Cl)c(Cl)c(Cl)c(Cl)c1Cl | 186
CN(C)C(=O)c1nc(-c2ccccc2)nc2c1c1ccc(F)cc1n2C | 229 to 231
CC(C)NC1C(n2cccn2)=NNN1S (stereo unspecified) | 80 to 85
O=C(N(c1ccccc1)c1nc(C(Cl)(Cl)Cl)ns1)C(Cl)(Cl)Cl | 158
CCNC1([C@@H]2CCN(c3ccc4c(=O)c(C(=O)O)cn([C@@H]5C[C@@H]5F)c4c3C)C2)CC1 | 191 to 194
CCOc1ccc(C(=O)OC)cc1C(=N)N | 133 to 135
COc1cc(C=C(N)C(C)=O)ccc1OCC1CO1 (stereo unspecified) | 173 to 174
C=CCON=C(CC)C1=C(O)CC(c2ccc(NS(C)(=O)=O)cc2)CC1=O (stereo unspecified) | 134 to 135
CSc1ccc(C(=O)Nc2cc(-c3c(-c4ccc(F)c(C)c4)nc4cccnn34)ccn2)cc1 | 191 to 192
CCOP(=O)(OCC)C(C)(C)NC(=O)c1cccc(NC(=O)c2cccc([N+](=O)[O-])c2)c1 | 120 to 121
Fc1cc(C(F)(F)F)cc(Cl)c1Oc1ccc2cn[nH]c2c1 | 134 to 143
NC(=O)c1c(N)oc2c(-c3ccccc3)cccc2c1=O | 233 to 235
CCCc1c(OCCCCCC(=O)c2cc(O)c(O)cc2F)ccc(C(=O)O)c1O | 193 to 195
CCOC(=O)C(C#N)=CNNc1ccc(C(F)(F)F)cc1[N+](=O)[O-] | 163 to 164
